The subject of test [1] is 14 DIV hippocampal neurons. Description: oTau-induced dendrite degeneration (MAP2 dendrite length, number) in cultured hippocampal neurons. Type of test: cell-based, mouse. The following applies: oTau 50 nM + inhibitor 24 h vs oTau alone, NVS-PAK1-1 10 nM, AZ 1 nM, G 5 nM; for total dendrite length per neuron: PAK1-C 10 nM. The procedure:
(§1) For in vitro study, all animal procedures were conducted in accordance with the National Institutes of Health Guide for the Care and Use of Laboratory Animals using protocols approved by the institutional animal care and use committee at Stanford University. Timed pregnant C57BL/6 mice (Strain code: 027) were purchased from Charles River Laboratories and delivered on embryonic day 15 (E15), after which E16 embryos were used for primary hippocampal cultures. Primary embryonic mouse hippocampal neuron cultures were plated on poly‐D‐lysine‐coated (10 µg/mL) glass cover slips at 40,000 to 50,000 cells per well in 12‐well plates (Corning Life Sciences). Cells were seeded in plating medium DMEM/F12 supplemented with 10% fetal bovine serum and 1 × penicillin/streptomycin (PS) for 2 hours. Medium was then changed to B‐27 Plus Neuronal Culture System (Invitrogen) supplemented with PS, and 2 mM glutamine.
(§2) Immunofluorescence was performed as described previously.[24] Briefly, cultured hippocampal neurons were fixed in 4% formaldehyde for 20 minutes, permeabilized for 6 minutes in 80% ice‐cold methanol, and incubated with primary antibodies at 4°C overnight. Primary antibodies used were rabbit polyclonal MAP2 antibody for labeling dendrites (1:1000, #8707, Cell Signaling) and mouse monoclonal drebrin antibody for labeling dendritic spines (1:300; Cat#ADI‐NBA‐110, Enzo). Secondary antibodies consisted of donkey antirabbit or antimouse conjugated with either FITC or Cy3 (1:400; Jackson ImmunoResearch Laboratories, Inc.).
(§3) The cultured hippocampal neurons were imaged using an oil‐based 63x objective on a Leica Stellaris 5 confocal microscope. The cell nucleus was stained with DAPI and imaged at a wavelength of 405 nm (blue channel), the dendrites stained by MAP2 were imaged at 488 nm wavelength (green channel), and the drebrin‐stained spines were imaged at a wavelength of 561 nm (red channel). Z‐stack images of neurons were acquired at a 1024 × 1024 resolution, a zoom factor of 1.0, and a z‐step size of 0.5 µm. The number of steps for every z‐stack picture of a neuron were determined by the size of the neuron in the z‐plane, to ensure that the entirety of a neuron is captured in the picture. The areas to be imaged were selected systematically, starting from the top‐left region to proceeding to the bottom‐right region of a coverslip. For imaging, preference was given to field of views containing isolated neurons versus clustered neurons.
(§4) For quantification of drebrin‐positive spines in vitro, the images were analyzed using Imaris 9.3 software. Each image consisted of one major neuron and the “filaments” option in Imaris was applied to manually trace along the dendrites of every neuron, by placing starting and seed points at the beginning and along the length of the dendrites, respectively. The largest dendrite diameter (i.e., Starting Point) was set at 9.00 µm threshold while the thinnest dendrite diameter (i.e., Seed Point) was set at 1.00 µm threshold. After manually tracing the dendrites, the spines along the dendrites were assessed using the automatic “spine detection” function in Imaris. The thinnest spine diameter was set at 0.80 µm threshold while the maximum spine length was set at 5.00 µm. The spine density (number of spines/dendrite length) was then calculated for each neuron. All image acquisition and quantification were performed in a blind manner. For in vitro quantification of dendrite degeneration, Neurolucida (MBF Biosciences) in the manual mode was used to measure the total dendritic length, numbers of dendrites, and dendritic complexity for each neuron.

Test [2] has as its system 14 DIV mouse hippocampal neurons. As to the kind of experiment: oTau-induced spine loss: drebrin-positive spine density in cultured hippocampal neurons. Type of test: cell-based. The following applies: oTau 50 nM + inhibitor 24 h vs oTau alone; NVS-PAK1-1 10 nM, NVS-PAK1-C 10 nM, AZ13705339 1 nM, G5555 5 nM. The method, then:
as §1, §2
The cultured hippocampal neurons were imaged using an oil‐based 63x objective on a Leica Stellaris 5 confocal microscope. The cell nucleus was stained with DAPI and imaged at a wavelength of 405 nm (blue channel), the dendrites stained by MAP2 were imaged at 488 nm wavelength (green channel), and the drebrin‐stained spines were imaged at a wavelength of 561 nm (red channel). […] The number of steps for every z‐stack picture of a neuron were determined by the size of the neuron in the z‐plane, to ensure that the entirety of a neuron is captured in the picture. […]
For quantification of drebrin‐positive spines in vitro, the images were analyzed using Imaris 9.3 software. […] After manually tracing the dendrites, the spines along the dendrites were assessed using the automatic “spine detection” function in Imaris. […] The spine density (number of spines/dendrite length) was then calculated for each neuron. All image acquisition and quantification were performed in a blind manner. For in vitro quantification of dendrite degeneration, Neurolucida (MBF Biosciences) in the manual mode was used to measure the total dendritic length, numbers of dendrites, and dendritic complexity for each neuron.

The test system of test [3] is 14 DIV hippocampal neurons. Description: oAβ-induced dendrite degeneration (MAP2 dendrite length, number, complexity) in cultured hippocampal neurons. The test is classed as cell-based, mouse. The following applies: oAβ 1 µM + inhibitor 24 h vs oAβ alone, NVS-PAK1-1 10 nM, AZ 1 nM, G 5 nM; for total dendrite length per neuron: PAK1-C 10 nM. The procedure:
as §1, §2, §3, §4

Test [4] has as its system 14 DIV mouse hippocampal neurons. Description: oAβ-induced spine loss: drebrin-positive spine density in cultured hippocampal neurons. The test is classed as cell-based. The following applies: oAβ 1 µM + inhibitor 24 h vs oAβ alone; NVS-PAK1-1 10 nM, NVS-PAK1-C 10 nM, AZ13705339 1 nM, G5555 5 nM. The procedure:
as §1, §2, §3
For quantification of drebrin‐positive spines in vitro, the images were analyzed using Imaris 9.3 software. Each image consisted of one major neuron and the “filaments” option in Imaris was applied to manually trace along the dendrites of every neuron, by placing starting and seed points at the beginning and along the length of the dendrites, respectively. The largest dendrite diameter (i.e., Starting Point) was set at 9.00 µm threshold while the thinnest dendrite diameter (i.e., Seed Point) was set at 1.00 µm threshold. After manually tracing the dendrites, the spines along the dendrites were assessed using the automatic “spine detection” function in Imaris. […] The spine density (number of spines/dendrite length) was then calculated for each neuron. All image acquisition and quantification were performed in a blind manner. For in vitro quantification of dendrite degeneration, Neurolucida (MBF Biosciences) in the manual mode was used to measure the total dendritic length, numbers of dendrites, and dendritic complexity for each neuron.

Test [5] has as its system kinome; broad panel of proteases, receptors, and bromodomains. The following applies: cited from earlier work.

Consider three compounds from article PMC12741935 (Alzheimer's & Dementia, 2025).

On to `CCS(=O)(=O)c1cc(Nc2ncc(F)c(N(Cc3ccccc3C#N)c3cc(CO)ccc3C)n2)ccc1N1CCN(C)CC1` [AZ13705339], for which the “dendrite number per neuron” value in test [1] and in test [3] was “significantly increased dendrite number per neuron” throughout. Besides, the “total dendrite length per neuron” value in test [1] and in test [3] was “preserved dendrite length” each time. Besides, the “drebrin-stained spine density (spine counts per µm of dendritic length)” value in test [2] and in test [4] was “significantly higher spine counts” each time. Moreover, the off-target kinase inhibition result in test [5] is “inhibit off‐target kinases”.
Take `CNc1ncc2cc(-c3ccc(-c4cccc(C)n4)cc3Cl)c(=O)n(C[C@H]3OC[C@H](N)CO3)c2n1` [G5555]: the “dendrite number per neuron” value in test [1] and in test [3] was “significantly increased dendrite number per neuron” in each case. Further, the “total dendrite length per neuron” value in test [1] and in test [3] was “Neither G nor PAK1‐C showed a significant dendrite length difference” each time. Besides, the “drebrin-stained spine density (spine counts per µm of dendritic length)” value in test [2] and in test [4] was “significantly higher spine counts” each time. In test [5], the off-target kinase inhibition entry is given as “inhibit off‐target kinases”.
For the compound `CN(C)C(=O)N1CC[C@H](N=C2Nc3cc(F)ccc3N(CC(F)F)c3ccc(Cl)cc32)C1` [NVS‐PAK1‐C], the “total dendrite length per neuron” value in test [1] and in test [3] was “Neither G nor PAK1‐C showed a significant dendrite length difference” in each case. For the same compound, the “drebrin-stained spine density (spine counts per µm of dendritic length)” value in test [2] and in test [4] was “not reflected” each time.
